System: Caco2 cells
Test: Activity of mitochondrial ETC complexes I-IV in Caco2 cells
Assay type: cell-based, human
Conditions: FLVCR1a-silenced vs scramble shRNA Caco2 cells
From the text: (A, C, E) Activities of the mitochondrial electron transport chain complexes I-IV. FLVCR1a-silenced Caco2 (A), SKCO1 (C) or C80 cells (E) are compared to cells expressing a scramble shRNA. Results were expressed as nmol NAD^+/min/mg mitochondrial protein for complex I, nmol reduced cytochrome c/min/mg mitochondrial protein for complexes II-III, nmol oxidized cytochrome c/min/mg mitochondrial protein for complex IV. Data represent mean±SEM, n=3. For statistical analyses, an unpaired Student's t-test was used; *=p<0.05, **=p<0.01. (B, D, F) Mitochondrial ATP levels measured by a bioluminescent assay kit. FLVCR1a-silenced Caco2 (B), SKCO1 (D) or C80 cells (F) are compared to cells expressing a scramble shRNA. Results are expressed as nmol/mg mitochondrial proteins. Data represent mean±SEM, n=3. […] Results were expressed as nmol NAD^+/min/mg mitochondrial protein for complex I, nmol reduced cytochrome c/min/mg mitochondrial protein for complexes II-III, nmol oxidized cytochrome c/min/mg mitochondrial protein for complex IV. […] (H) Mitochondrial ATP levels measured by a bioluminescent assay kit in Caco2 cells overexpressing FLVCR1a (indicated as FLVCR1a+) compared to cells stably transduced with an empty vector. Results are expressed as nmol/mg mitochondrial proteins. […]
The activity of mitochondria respiration complexes was measured according to (Wibom et al., 2002).

Substance: FLVCR1a shRNA: shRNA specifically down-regulating FLVCR1a without targeting FLVCR1b; pLKO.1 lentiviral clone TRCN0000059599, antisense SEQ ID No.: 2 (antisense TTGCTAATGATGCTGTACTGG; sense CCAGTACAGCATCATTAGCAA)
- activity of mitochondrial respiratory chain complexes: increased activity of all the complexes involved in the mitochondrial respiratory chain

— patent publication US20240285670A1, “THERAPEUTIC TREATMENT OF TUMORS BY BLOCKING THE HEME SYNTHESIS-EXPORT AXIS” (Università degli Studi di Torino, priority 2021, published 2024)
